The source of these data is patent US20150274639A1, “METHODS OF USE FOR COMPOSITIONS COMPRISING A BIOCIDAL POLYAMINE” (Curza Global, LLC, priority 2013, published 2015).

Assay [1] concerns A. baumannii biofilm. Description: MBEC, MBEC Inoculation Tray by Innovotech (to 10^2 CFU/peg in 24 hours). Particulars: Table 3B titled MICs, group head missing, values match MBEC; for MIC: Acinetobacter baumannii. The assay is classed as cell-based, Acinetobacter baumannii.
In another assay the test system is P. aeruginosa. Put plainly: MIC in CAMHB, 96-well plate (10^5 to 10^2 CFU/mL in 24 hours). Type of assay: cell-based. The following applies: Pseudomonas aeruginosa. How it is done: (§1) To determine the MIC of polyamine compounds, the protocol described herein was used.
(§2) In brief, a 0.5 McFarland of each bacterial isolate was made. A 0.5 McFarland is a measure of turbidity in a liquid sample that contains approximately 1×10̂^8 CFU/mL. The 0.5 McFarland standard was diluted in cation adjusted Mueller Hinton Broth (CAMHB), and […], of broth were added to a well of a 96-well plate. In addition, 50 μL of CAMHB that contained a desired concentration of antimicrobial were also added to the well for a final volume of 100 and a final concentration of approximately 5×10^4 CFU/well (which equated to approximately 5×10^5 CFU/mL). Each well contained a desired amount of polyamine compound in order to experimentally determine the MIC. Each 96-well plate was incubated at 37° C. for 24 hours. The contents of each well were plated on tryptic soy agar (TSA). TSA plates were incubated for 37° C. for 24 hours after which the number of CFU were counted and used to calculate the CFU/mL that remained after exposure to varying concentrations of compound. This procedure was repeated n=8 times for each concentration of antimicrobial.

Assay [2] relates to A. baumannii biofilm. Put plainly: EBEC, high number biofilms on PEEK membranes (10^9 to 10^2 CFU/PEEK membrane in 24 hours). Particulars: for EBEC, A. baumannii: Table 4; for EBEC relative to MIC against A. baumannii: EBEC greater than the MIC by this factor. Type of assay: cell-based, Acinetobacter baumannii. How it is done:
In addition to determining the MIC and the MBEC of polyamine compounds against planktonic bacteria and low number biofilms, our group wanted to determine the efficacy of polyamine compounds against high number biofilms. To do so, biofilms were grown on the surface of polyetheretherketone (PEEK) membranes using a membrane biofilm reactor. This reactor is similar to the CDC biofilm reactor, but rather than growing biofilms on coupon surfaces, the reactor was modified to hold PEEK membranes. In short, to grow biofilms within this system, 500 mL of brain heart infusion (BHI) broth were inoculated with 1 mL of a 0.5 McFarland. The reactor was placed on a hot plate set at 34° C. and the bacteria were grown under batch conditions for 24 hours. Following this protocol, biofilms typically grow to 10^9 CFU/PEEK membrane. […] A solution of 10% BHI was then flowed through the reactor at a rate of 6.94 mL/min for an additional 24 hours. PEEK membranes were then removed and placed into 2 mL of CAMHB that contained a desired concentration of polyamine compound or antibiotic. The EBEC was defined as the concentration of antimicrobial required to reduce a biofilm from approximately 10^9 CFU/PEEK membrane to approximately 10^2 CFU/PEEK membrane in a 24-hour period.
In addition to determining the MIC and the MBEC of compounds against planktonic bacteria and low number biofilms, the efficacy of the compounds of the invention against high number biofilms is determined. To do so, biofilms are grown on the surface of PEEK membranes using a membrane biofilm reactor (Williams, D. L., Haymond, B. S. & Bloebaum, R. D. Use of delrin plastic in a modified CDC biofilm reactor. Res J Microbiol 6, 425-429 (2011); Williams, D. L., Woodbury, K. L., Haymond, B. S., Parker, A. E. & Bloebaum, R. D. A modified CDC biofilm reactor to produce mature biofilms on the surface of PEEK membranes for an in vivo animal model application. Curr Microbiol 62, 1657-1663 (2011); Williams, D. L. et al., In Vivo Efficacy of a Silicone—Cationic Steroid Antimicrobial Coating to Prevent Implant-Related Infection. Biomaterials 33, 8641-8656 (2012); Williams, D. L. et al., Experimental model of biofilm implant-related osteomyelitis to test combination biomaterials using biofilms as initial inocula. J Biomed Mat Res A 100, 1888-1900 (2012)). This reactor is similar to the CDC biofilm reactor, but rather than growing biofilms on coupon surfaces, the reactor was modified to hold PEEK membranes. In short, to grow biofilms within this system, 500 mL of brain heart infusion (BHI) broth is inoculated with 1 mL of a 0.5 McFarland. The reactor is placed on a hot plate set at 34° C. and the bacteria grown under batch conditions for 24 hours. A solution of 10% BHI will then be flowed through the reactor at a rate of 6.94 mL/min for an additional 24 hours. Following this protocol, biofilms typically grow to 10^9 CFU/PEEK membrane. PEEK membranes is removed and placed into 2 mL of CAMHB that contain a desired concentration of the test compound. The EBEC is defined as the concentration of antimicrobial required to reduce a biofilm from approximately 10^9 CFU/PEEK membrane to approximately 10^2 CFU/PEEK membrane in a 24-hour period.
EBEC data were collected to determine the efficacy of CZ-52, CZ-58 and traditional antibiotics against high number biofilms containing approximately 10^9 CFU grown on the surface of a polyetheretherketone (PEEK) membrane. […] In contrast, at 250 μg/mL CZ-52 was able to reduce MRSA biofilms by greater than 7 log10 units in a 24-hour period. Although the MIC of CZ-58 was lower against MRSA compared to A. baumannii, CZ-58 had greater activity against biofilms of A. baumannii than against MRSA biofilms in the EBEC assay. […] Although the MIC of CZ-58 was “high” compared to MICs of traditional antibiotics, the efficacy against biofilms was promising.

For assay [3], the system named is A. baumannii biofilm. Described as above. Type of assay: cell-based, Acinetobacter baumannii. Particulars: Table 3B titled MICs, group head missing, values match EBEC; for MIC: Acinetobacter baumannii.
Another assay relates to MRSA biofilm. Put plainly: MBEC, MBEC Inoculation Tray by Innovotech (to 10^2 CFU/peg in 24 hours). The assay is classed as cell-based, methicillin-resistant Staphylococcus aureus. Particulars: for MIC: Staphylococcus aureus, MRSA, Table 3A titled MICs, group head missing, values match MBEC; for MBEC, MRSA: Table 4.
For another assay, the system named is MRSA. Description: MIC in CAMHB, 96-well plate (10^5 to 10^2 CFU/mL in 24 hours). Type of assay: cell-based, methicillin-resistant Staphylococcus aureus. The following applies: Staphylococcus aureus, MRSA. How it is done: as §1
as §2, with “antimicrobial. […]” for “antimicrobial.”

Where [4] appears, read: Table 3A, first P. aeruginosa column.

Converted amounts (≈) assume the structure as drawn. “And” between values parts separate entries of the source, which are not always exact repeats. Identical values can stand only once.

For the compound `NCCCNCCCNCc1cccc(CNCCCNCCCN)c1` [CZ-25], the MIC with A. baumannii biofilm [1] is 450 µg/mL (≈ 1230 µM); in the assay with P. aeruginosa (setting [4]) it was 50 µg/mL; against P. aeruginosa (Table 5, class symbols), > 100 µM; in the assay with A. baumannii biofilm [3], > 5000 µg/mL; against MRSA biofilm, 25 µg/mL (≈ 68.6 µM); with MRSA (Table 3A, first MRSA column), 40 µg/mL. Moreover, the MIC against MRSA (Table 4) was 40 µg/mL and 110 µM. The “EBEC, A. baumannii” value in the assay on A. baumannii biofilm [2] is recorded as ~7,500 μg/mL. Further, the “MBEC, MRSA” value with MRSA biofilm was 25 μg/mL and 69 μM.
`NCCCNCCCNCc1cc(CNCCCNCCCN)cc(CNCCCNCCCN)c1` [CZ-52]: the MIC with A. baumannii biofilm [1] is 300 µg/mL (≈ 591 µM); in the assay on P. aeruginosa (setting [4]), 17 µg/mL; against A. baumannii biofilm [3], > 5000 µg/mL; with MRSA biofilm, 20 µg/mL (≈ 39.4 µM); against MRSA (Table 3A, first MRSA column), 3 µg/mL; in the assay with MRSA (Table 4), 3 µg/mL and 6 µM. Also, the “EBEC, A. baumannii” value in the assay with A. baumannii biofilm [2] was ~7,000 μg/mL and ~14,000 μM. The “MBEC, MRSA” value with MRSA biofilm was 20 μg/mL and 40 μM.
As to `NCCCNCCCNCc1cc(CNCCCNCCCN)cc(-c2ccccc2)c1` [CZ-58], the MIC in the assay on P. aeruginosa (Table 5, class symbols) was < 50 µM; against MRSA (Table 4) it was 6 µg/mL and 13.6 µM; against MRSA (Table 5, class symbols), < 50 µM. In addition, the “EBEC relative to MIC against A. baumannii” value in the assay on A. baumannii biofilm [2] was ~13 ×. Further, the “EBEC, A. baumannii” value in the assay with A. baumannii biofilm [2] is 400 μg/mL and 908 μM. In the assay on A. baumannii biofilm [2] (greater activity against A. baumannii biofilms), the “activity against A. baumannii biofilms relative to MRSA biofilms” value is given as 10 fold. Besides, the “MBEC, MRSA” value with MRSA biofilm is 30 μg/mL and 68 μM.
In the case of “Polymyxin B sulfate [reference compound]”, the “MIC, A. baumannii” value in the assay with A. baumannii biofilm [1] is 50 µg/mL; in the assay with A. baumannii biofilm [3], 1,000 μg/mL. Moreover, the “EBEC relative to MIC against A. baumannii” value with A. baumannii biofilm [2] is listed as 1,000 ×. Also, the “EBEC, A. baumannii” value with A. baumannii biofilm [2] was 1,000 μg/mL and 722 μM.
